Where two headings read alike, the source gives them in different places.
Key:
A549 (KRASG12S) = test: Cell viability screen, CellTiter-Glo, 72 h; assay type: cell-based; settings: Homo sapiens, ATP content/viability
Method: (§1) Figure 1: Optimization of Potency and Drug Properties of Small Molecule Inhibitors of Ras- and Raf-mutant Cells using Viability Screens. (A) Cell viability screen of ~300 small molecules in A549 (KRASG12S), LOX IMVI (BRAFV600E), and MelJuso (HRASG13D and NRASQ61L). Cells were treated with vehicle DMSO or increasing concentrations of small molecules in triplicate for 72 h and ATP content/viability was measured using CellTiter-Glo Luminescent Cell Viability Assay. The results shown for all cell viability figures are representative of at least two independent experiments. […] (C) Evolution of the Structure Activity Relationship (SAR) and IC50s of the first (68) and last (249C | lead due to drug-like properties) compounds in the screen. (D) 249C sensitivity for a panel of 53 cancer cell lines (including lung, pancreatic, breast, ovarian, hematological/liver, prostate, colorectal cancers, glioma and melanoma). […] (F) Quantitative whole proteome analysis of the effects of small molecule treatment by mass spectrometry. A549 cells were treated with DMSO or 68 (30 μM), 226C (1μM) or 249C (1μM) for 48 h prior to analysis of proteomes with TMT labeling followed by quantification relative to the DMSO control. […]

LOX IMVI (BRAFV600E) = test: Cell viability screen, CellTiter-Glo, 72 h; assay type: cell-based; settings: Homo sapiens, ATP content/viability
Method: as §1

[1] = tested on: panel of 53 cancer cell lines; test: 249C sensitivity in a panel of 53 cancer cell lines; assay type: cell-based; settings: Homo sapiens, read-out: median IC50
Method: Figure 1: Optimization of Potency and Drug Properties of Small Molecule Inhibitors of Ras- and Raf-mutant Cells using Viability Screens. (A) Cell viability screen of ~300 small molecules in A549 (KRASG12S), LOX IMVI (BRAFV600E), and MelJuso (HRASG13D and NRASQ61L). Cells were treated with vehicle DMSO or increasing concentrations of small molecules in triplicate for 72 h and ATP content/viability was measured using CellTiter-Glo Luminescent Cell Viability Assay. The results shown for all cell viability figures are representative of at least two independent experiments. […] (F) Quantitative whole proteome analysis of the effects of small molecule treatment by mass spectrometry. A549 cells were treated with DMSO or 68 (30 μM), 226C (1μM) or 249C (1μM) for 48 h prior to analysis of proteomes with TMT labeling followed by quantification relative to the DMSO control. […]
The Cancer Cell Line Encyclopedia (CCLE, http://www.broadinstitute.org/ccle) was used to download somatic mutation data for over 1000 cancer cell lines [(CCLE_DepMap_18q3_maf_20180718.txt) from CCLE at https://depmap.org/portal/download/ (2018)][61]. We filtered the data to retain only mutations (single nucleotide variants, SNVs, and insertion deletions, indels) detected in 53 cell lines that were included in our MTS assays (Fig. 1). […] Genes with multiple mutations in the same cell line were only counted once. […]

Yeast V-ATPase = target: T1, Yeast V-ATPase (Saccharomyces cerevisiae, UniProt P25515+P41807); test: Biochemical V-ATPase (ATP hydrolysis) assay
T1 construct: V-ATPase was purified as described previously from yeast[82] using the detergent dodecylmaltoside; endogenous in cells; host or cells: yeast
Method: V-ATPase was purified as described previously from yeast[82] using the detergent dodecylmaltoside and porcine kidney[83] using the detergent glycol-diosgenin. ATPase assays with purified V-ATPase were performed as described previously. 249C (mammalian: 0.1, 1, 10, 100 μM and yeast: 5, 10 and 100 μM) or BafA1 (1 μM) were added to the reaction and compared with a negative control to which only DMSO was added. Enzyme-coupled ATPase biochemical activity assays were performed in a 96-well plate as described previously. […]
appears to cause accumulation of high molecular weight entities. Representative of 3 independent experiments. […]
observed. Data shown are mean ± SD ( n = 3) Two-tailed student’s t-test (C) ATP-dependent fluorescence quenching in yeast (me an ± SD; n = 3 ) Two-t ailed student’s t-test (D) SDS PAGE over th e cou rse of recombinant human ATP6V1H protein purification. 1. Mark ers; 2. Total l ysate (GST-fusion […]); 3. Soluble lysate; 4.
GSTrap flow-through; 5. GSTrap elute; 6. Post thrombin cleavage (target 54 kDa, GST 25 kDa); 7. Subtractive GSTrap flow -through; 8. Markers; 9. Final sample, 1 µg protein load. Repres entative of 2 independent ex periments. (E) Structure of biotin- 249C. […]
interfere with V-ATPas e binding. ( F) Experimental schematic of Bio-la yer inferometr y (B L I) .
(1 picture or pasted object on this page, not shown here)

[2] = tested on: NSCLC A549 (KRASG12S) xenografts; test: A549 lung cancer xenograft; assay type: in vivo; settings: 10 mg/kg twice daily i.p.
Method: Finally, to test whether 249C could inhibit autophagy and attenuate the growth of mutant KRAS-dependent cancers as a single agent in vivo, we evaluated 249C in a mouse xenograft model of lung cancer (NSCLC, A549). Briefly, we injected mutant KRAS A549 (G12S) cells into the flanks of athymic mice to establish xenografts, randomly assigned mice to vehicle control (n = 7) or 249C-recipient groups (n = 7, 10 mg/kg) with twice daily i.p. injections, and recorded tumor volume and body weight over time. […] We subsequently sacrificed all mice and excised their tumors for further investigation.
5 × 10^6 A549 cells were subcutaneously injected into the lower left flank of 6–8-week old athymic nude female mice (Charles River strain # 088, homozygous NU/NU). To assess establishment of tumors, mice were examined 5 days post-inoculation and were randomly segregated into two treatment groups [vehicle control, 10 mg/kg 249C IP, n = 7 per group] and were treated twice daily with the drug in NPM or vehicle control (5% weight aqueous solution of carboxymethyl cellulose). Tumor volumes were calculated using the formula (L × W × H)/2 with recorded caliper measurements. Survival curves and statistical analyses were performed using Excel. Animals were maintained on a standard chow diet; 12:12 dark/light cycle and in group housing in hepa-filtered cages. All animal procedures were performed under IACUC approved protocols and guidelines. Animals from both groups were weighed every 3 days. Plasma concentration was measured from blood collected using standard and established protocols.

MEFs KRAS G13D = test: Cell proliferation of Ras-less MEFs expressing human KRAS/BRAF; settings: Mus musculus
Method: Cell proliferation assays of stable cell lines treated with V-ATPase inhibitors 249C and BafA1, HCQ analog (DC661), KRASG12C inhibitor (AMG510) and autophagy inducer (CMA). For each bar, n = 3. Representative of 3 biological replicates (mean ± SD). Two-sided t-test with no adjustments for multiple comparisons.
(§2) Logarithmically growing cells were plated in antibiotic-free medium supplemented with 2% fetal bovine serum at a density of 5,000 cells per well. The next day, cells were treated in triplicates with increasing doses of in-house small molecule inhibitor drugs and a DMSO vehicle control for 3 days and subsequently assessed for cell viability by measurement of ATP with CellTiter-Glo Luminescent Cell Viability Assay (Promega). Signal intensity was read on a Glomax™ 96 Microplate Luminometer (Promega) with GLOMAX software (version 1.9.3) and percent cell survival was calculated based on the reading of vehicle control cells set as 100% using Excel (2012) and GraphPad Prism (version 6)Each compound was tested a minimum of 2 times with n = 3. All cell proliferation assays (cancer cell lines or MEFs) were done in a similar way.

MEFs KRAS G12S = test: as above; settings: Mus musculus
Method: as §2

MEFs KRAS Q61R = test: as above; settings: Mus musculus
Method: as §2

T1 sequence (P25515 whole entry): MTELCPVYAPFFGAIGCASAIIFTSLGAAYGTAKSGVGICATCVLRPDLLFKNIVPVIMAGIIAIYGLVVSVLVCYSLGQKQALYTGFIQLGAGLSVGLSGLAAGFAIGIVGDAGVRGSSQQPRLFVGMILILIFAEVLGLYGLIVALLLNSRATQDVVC
T1 sequence (P41807 2-478): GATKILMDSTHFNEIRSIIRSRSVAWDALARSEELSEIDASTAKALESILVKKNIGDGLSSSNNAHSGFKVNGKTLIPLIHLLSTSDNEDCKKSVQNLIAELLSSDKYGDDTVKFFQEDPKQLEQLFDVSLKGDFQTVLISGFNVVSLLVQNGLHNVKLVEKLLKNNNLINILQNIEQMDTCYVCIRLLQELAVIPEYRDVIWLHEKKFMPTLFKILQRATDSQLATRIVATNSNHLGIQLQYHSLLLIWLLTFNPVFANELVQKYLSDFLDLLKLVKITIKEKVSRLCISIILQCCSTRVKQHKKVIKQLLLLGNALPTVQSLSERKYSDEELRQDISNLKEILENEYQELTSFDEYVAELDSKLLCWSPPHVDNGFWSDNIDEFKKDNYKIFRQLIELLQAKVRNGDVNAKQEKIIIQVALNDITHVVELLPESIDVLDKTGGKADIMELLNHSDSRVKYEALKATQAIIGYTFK

CN1CCOC(CNC(=O)C2(C)C(c3ccc(Cl)o3)C(c3ccc(F)cc3F)=NN2c2ccc(F)cc2F)C1 (centres unmarked) [Compound 249C]
IC50 (A549 (KRASG12S)): 73 nM | IC50 (LOX IMVI (BRAFV600E)): 60 nM | IC50 ([1]; KRAS/HRAS/NRAS/BRAF mutant cells): 65 nM | IC50 ([1]; cells with no mutations in these genes): 365 nM | Yeast V-ATPase activity (Yeast V-ATPase): modest inhibition | tumor volume vs vehicle ([2]; athymic mice): significantly lower | tumor mass vs vehicle ([2]; end point): lower | tissue weight of treated mice vs vehicle ([2]; mice bearing A549 xenografts): No significant difference in tissue weight | IC50 (MEFs KRAS G13D): 70 nM | IC50 (MEFs KRAS G12S): 230 nM | IC50 (MEFs KRAS Q61R): 550 nM

From article PMC9750872, “Ras-mutant cancers are sensitive to small molecule inhibition of V-type ATPases in mice” (Nature biotechnology, 2022)
